This is an account of results in article PMC8655160, “Overcome Chemoresistance: Biophysical and Structural Analysis of Synthetic FHIT-Derived Peptides” (Frontiers in Molecular Biosciences, 2021).

The subject of one experiment is A549 cells. The format is cell-based. The conditions noted are these: peptide (100 μM) + paclitaxel (800 nM); 72 h. The protocol:
A549 were grown in appropriate medium (Sigma Aldrich, St. Louis, MO) supplemented with 10% fetal bovine serum (FBS) (Sigma Aldrich, St. Louis, MO), 1% penicillin/streptomycin (Sigma Aldrich, St. Louis, MO) at 37°C in a 5% CO2 incubator. A549, adenocarcinoma cells line, were treated using a combo of paclitaxel (800 nM, PTX) and peptides (10 μM, 50 μM, 100 µM). After 24, 48, and 72 h, 10 μL/well of CTG detection mix, from CellTiter-Glo Assay Kit (Promega Corp, Madison, United States), were added; plates were gently mixed, incubated for 10 min in the dark, and read using EnVision Multilabel 2103.  FIGURE 8 Inhibition of A549 cell viability in cells treated with paclitaxel (800 nM) and peptides 1–8 (100 μM). Cells were plated in triplicate in 384-well plates and treated with PTX and peptides (DMSO was used as a […] control) for 24, 48, or 72 h. Cell viability was measured using CellTiter assay as described in the Materials and Methods section. Cell viability was expressed as a percentage of control and each column represents the mean ± SD of three independent experiments.

For another experiment, the target named is T1, ANXA4 (Homo sapiens, UniProt P09525).
T1 construct: purchased Genscript lot N. U8886ED090-5/P3ED001
T1 sequence (P09525 1-319): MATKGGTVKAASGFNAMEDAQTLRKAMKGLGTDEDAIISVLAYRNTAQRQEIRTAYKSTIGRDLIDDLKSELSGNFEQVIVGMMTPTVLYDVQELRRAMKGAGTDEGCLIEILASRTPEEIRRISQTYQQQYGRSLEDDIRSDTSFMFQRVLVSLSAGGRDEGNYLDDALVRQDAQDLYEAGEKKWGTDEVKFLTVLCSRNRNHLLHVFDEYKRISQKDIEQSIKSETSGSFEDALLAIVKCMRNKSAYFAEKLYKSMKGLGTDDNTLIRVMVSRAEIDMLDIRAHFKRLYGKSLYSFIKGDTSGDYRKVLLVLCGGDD
The experiment is described as follows: NanoDSF thermal unfolding of ANXA4 with peptides. The settings on record: peptide 200 μM, protein 40 µM; for Tm (°C): ramp 20-95°C, Ctrl 48.5; for ΔTm at 200 µM: versus Ctrl. The format is binding. On the procedure:
The assay was carried out in PBS (pH 7.4, 5 mM CaCl2) buffer using 40 μM of protein and 200 μM of compounds. The samples were loaded into nanoDSF Grade Standard Capillaries (NanoTemper Technologies) and analyzed using the Prometheus NT.48 nanoDSF device (NanoTemper Technologies). Thermal unfolding of the protein was monitored using a linear thermal ramp (1°C/min; 20°C–95°C) with an excitation power of 90%. […] In control, the sample was replaced with buffer solution. Three independent measurements were carried out for each compound, and their mean is depicted. The fluorescence intensity ratio and its first derivative were calculated with the manufacturer’s software (PR.ThermControl, version 2.1.2).
NanoDSF is an advanced differential scanning fluorimetry method for measuring melting temperature (Tm) of peptide-protein complex. In nanoDSF, a protein in solution is exposed to a temperature gradient that leads to the unfolding of the protein. The intrinsic fluorescence of the protein, mainly originating from the aromatic sidechains of tyrosine and tryptophan residues, is examined. Upon unfolding, the environment of those residues alters because they become exposed to the solvent and, thus, their fluorescence intensity changes. The relation between fluorescence intensity changes and temperature gradient can be used to obtain a so-called apparent Tm.
A general note: In DSF a fluorescence change marks the thermal transition of the protein.

For experiment [1], the system named is Annexin A4 translocation in A549 and Calu-2 lung cancer cells. Further details: method as in Gaudio et al., 2013. The conditions noted are these: A549 and Calu-2 lung cancer cells treated with paclitaxel; ref Gaudio et al., 2013; cited from earlier work.
In experiment [2] the target is T2, His-tag-ANXA4 (annexin A4) (UniProt P09525 1-319, in MST only: labelled with His-Tag Labeling Kit RED-tris-NTA (NT647 fluorophore)).
T2 construct: annexin A4 (ANXA4); Probably human ANXA4, since the work is on human lung cancer cells; also called NT647-ANXA4; ANX4; source: expressed by Genscript (lot N. U8886ED090-5/P3ED001); not shown: His6, C-terminal, kept
T2 sequence (looked up): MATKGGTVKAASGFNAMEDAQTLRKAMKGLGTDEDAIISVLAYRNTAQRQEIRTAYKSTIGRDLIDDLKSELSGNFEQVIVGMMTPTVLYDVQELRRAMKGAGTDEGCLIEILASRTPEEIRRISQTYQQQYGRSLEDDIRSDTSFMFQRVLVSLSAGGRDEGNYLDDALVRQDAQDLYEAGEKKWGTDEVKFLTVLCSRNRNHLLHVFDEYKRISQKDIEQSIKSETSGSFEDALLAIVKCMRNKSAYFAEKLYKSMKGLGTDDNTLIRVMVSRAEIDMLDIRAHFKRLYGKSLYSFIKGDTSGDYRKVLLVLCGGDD
The experiment can be described thus: SPR; Biacore T200; His-tag-ANXA4 captured on anti-histidine antibody coupled to CM5 chip; peptide 0.08-5 uM injected at 25 C, 30 uL/min, 120 s association, 600 s dissociation; HBS-P+ pH 7.4 with 5 mM CaCl2; global 1:1 fit, KD = kd/ka. The conditions noted are these: both partners purified. In general terms: Surface plasmon resonance follows binding to a sensor surface in real time, without labels.

For experiment [3], the target named is T2, His-tag-ANXA4 (annexin A4). The experiment is described as follows: MST; Monolith NT.115pico; 40 nM NT647-labelled ANXA4 mixed 1:1 with serial dilutions of peptide (highest 50 uM); PBS pH 7.4, 5 mM CaCl2; 10 min at rt; standard-treated capillaries, high MST power, LED 10%; duplicates. The settings on record: both partners purified.
The target of experiment [4] is T3, His-tag-ANXA4 (annexin A4) (UniProt P09525 1-319, in MST only: labelled with His-Tag Labeling Kit RED-tris-NTA (NT647 fluorophore)).
T3 chain: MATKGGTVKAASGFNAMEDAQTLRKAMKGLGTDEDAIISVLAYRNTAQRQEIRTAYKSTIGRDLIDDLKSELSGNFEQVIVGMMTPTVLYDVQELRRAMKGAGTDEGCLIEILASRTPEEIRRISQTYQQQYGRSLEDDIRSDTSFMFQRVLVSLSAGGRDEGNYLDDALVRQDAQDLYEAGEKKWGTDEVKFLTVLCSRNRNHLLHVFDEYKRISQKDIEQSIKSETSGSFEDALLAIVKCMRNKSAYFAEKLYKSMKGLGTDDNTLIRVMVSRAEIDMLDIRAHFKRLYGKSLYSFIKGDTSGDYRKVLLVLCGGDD
The experiment can be described thus: SPR.

A word on the ΔTm: it is the shift of the melting midpoint relative to a reference. Regarding Ac-AHLIKPS-NH2 [peptide 8, AHLIKPS], the “Biological activity in combination with paclitaxel compared to reference peptide 1 (in words)” value with A549 cells was “decrease of cell viability compared to reference peptide 1”. Moreover, at ANXA4, the “Tm (°C)” value is 48.9 °C and the ΔTm at 200 µM was found to be 0.4 °C.
The like results for Ac-QALIKPS-NH2 [peptide 7, QALIKPS] were, in that order, “slightly improves the paclitaxel cytotoxicity”, 49.1 °C and 0.6 °C.
As for Ac-QHAIKPS-NH2 [peptide 6, QHAIKPS], in the experiment on A549 cells, the “Biological activity in combination with paclitaxel compared to reference peptide 1 (in words)” value is given as “slightly improves the paclitaxel cytotoxicity”. For the same molecule, at ANXA4, the “Tm (°C)” value was 48.9 °C and the ΔTm at 200 µM amounted to 0.4 °C.
With Ac-QHLAKPS-NH2 [compound 5, QHLAKPS], on ANXA4, the “Tm (°C)” value stood at 49.2 °C and the thermal shift (ΔTm) at 200 µM came to 0.7 °C.
In the same order, the values of Ac-QHLIAPS-NH2 [peptide 4, QHLIAPS] are 49.2 °C and 0.7 °C.
In the case of Ac-QHLIKAS-NH2 [peptide 3, QHLIKAS], the shift in melting temperature (ΔTm) at 200 µM at ANXA4 was found to be 0.5 °C.
Regarding “Ac-QHLIKPA-NH2 (N-terminus and C-terminus assumed) [peptide 2, QHLIKPA]”, the “Biological activity in combination with paclitaxel compared to reference peptide 1 (in words)” value with A549 cells is listed as “basically preserves the biological activity”. Further, on ANXA4, the “Tm (°C)” value was 48.7 °C and the shift in melting temperature (ΔTm) at 200 µM worked out at 0.2 °C.
As for Ac-QHLIKPS-NH2 [peptide 1, QHLIKPS], the “Inhibition of Annexin A4 translocation from cytosol to plasma membrane” value in experiment [1] is on record as “inhibiting Annexin A4 translocation from cytosol to plasma membrane”. For the same molecule, on ANXA4, the “Tm (°C)” value came to 48.6 °C and the ΔTm at 200 µM amounted to 0.1 °C.

B1: FHIT mimetic peptide 7-13 (peptide 1) (peptide)
peptide: Ac-QHLIKPS-NH2
notes: FHIT (fragile histidine triad protein), residues 7-13; also called FHIT (7-13); lead peptide; source: synthetic peptide (Fmoc solid phase, RP-HPLC purified)
What is called Kd is the equilibrium constant for the complex coming apart. The low end stands for tighter binding, the high end for weaker binding. For the molecule B1, the figures for the Kd in experiment [2], in experiment [3] and in experiment [4] were 840 ± 50 nM, 4650 nM and 1260 nM, respectively.

B2: peptide 8 (AHLIKPS) (peptide)
peptide: Ac-AHLIKPS-NH2
notes: FHIT residues 7-13 with Gln1 of the peptide replaced by Ala; numbers count on: the peptide (residue 1 = Gln7 of FHIT); Gln1 is Q7 of FHIT; also called analogue 8; source: synthetic peptide (Fmoc solid phase, RP-HPLC purified)
For B2, the figures for the Kd in experiment [2] and in experiment [3] were 1520 ± 330 nM and 3040 nM, respectively.

B3: peptide 7 (QALIKPS) (peptide)
peptide: Ac-QALIKPS-NH2
notes: FHIT residues 7-13 with His2 of the peptide replaced by Ala; numbers count on: the peptide (residue 1 = Gln7 of FHIT); His2 is H8 of FHIT; also called derivative 7; source: synthetic peptide (Fmoc solid phase, RP-HPLC purified)
Take B3: the dissociation constant Kd came out at 850 ± 55 nM in experiment [2] and 1130 nM in experiment [3].

B4: peptide 3 (QHLIKAS) (peptide)
peptide: Ac-QHLIKAS-NH2
notes: FHIT residues 7-13 with Pro6 of the peptide replaced by Ala; numbers count on: the peptide (residue 1 = Gln7 of FHIT); Pro6 is P12 of FHIT; also called analogue 3; source: synthetic peptide (Fmoc solid phase, RP-HPLC purified)
Take B4: the Kd in experiment [2] is 375 ± 20 nM; in experiment [3], 14 nM.

B5: peptide 2 (QHLIKPA) (peptide)
peptide: Ac-QHLIKPA-NH2
notes: FHIT residues 7-13 with Ser7 of the peptide replaced by Ala; numbers count on: the peptide (residue 1 = Gln7 of FHIT); Ser7 is S13 of FHIT; also called analogue 2; source: synthetic peptide (Fmoc solid phase, RP-HPLC purified)
B5: the dissociation constant Kd in experiment [2] amounted to 552 ± 80 nM; in experiment [3], 218 nM.

B6: peptide 5 (QHLAKPS) (peptide)
peptide: Ac-QHLAKPS-NH2
notes: FHIT residues 7-13 with Ile4 of the peptide replaced by Ala; numbers count on: the peptide (residue 1 = Gln7 of FHIT); Ile4 is I10 of FHIT; also called analogue 5; source: synthetic peptide (Fmoc solid phase, RP-HPLC purified)
In turn, B6 came in with a Kd in experiment [3] of 1410 nM.

B7: peptide 4 (QHLIAPS) (peptide)
peptide: Ac-QHLIAPS-NH2
notes: FHIT residues 7-13 with Lys5 of the peptide replaced by Ala; numbers count on: the peptide (residue 1 = Gln7 of FHIT); Lys5 is K11 of FHIT; also called analogue 4; source: synthetic peptide (Fmoc solid phase, RP-HPLC purified)
On to B7, for which the dissociation constant Kd was 53 ± 10 nM in experiment [2] and 146 nM in experiment [3].

B8: peptide 6 (QHAIKPS) (peptide)
peptide: Ac-QHAIKPS-NH2
notes: FHIT residues 7-13 with Leu3 of the peptide replaced by Ala; numbers count on: the peptide (residue 1 = Gln7 of FHIT); Leu3 is L9 of FHIT; also called derivative 6; source: synthetic peptide (Fmoc solid phase, RP-HPLC purified)
In experiment [3], B8 displayed an equilibrium dissociation constant (Kd) of 6400 nM.
